Reference: PubChem BioAssay AID2060894 (Molecular Pharmacology Branch, DTP, NCI, 2025)

System: K12877-001-R-J1-PDC complex spheroid viability
Test: Anticancer human tumor K12877-001-R-J1-PDC patient-derived lung adenocarcinoma cell line growth inhibition [RAS]
Details: for IC50: curve of first compound; for viability, T/C: stronger effect = lower value
Text: RAS pathway inhibitors in Combinations in Complex Spheroids
A high-throughput screen of multi-cell type tumor spheroids was designed to identify active combinations of RAS pathway inhibitors and targeted small molecules. Complex spheroids include a stromal component modeled by human endothelial cells (HUVEC) and fibroblasts modeled by human mesenchymal stem cells (MSCs). The concentration ranges selected for each drug and investigational agent were based upon clinically achievable concentrations if the clinical Cmax of the agent was known.
Compounds. The drugs and investigational agents: abemaciclib (NSC768073), cobimetinib (NSC768068), divarasib (GDC6063, NSC841802), docetaxel (NSC628503), GDC-1971 (RLY-1971, NSC841576), gemcitabine (NSC613327), inavolisib (NSC800729), ipatasertib (NSC767898), KB-0742 (NSC834161), MRTX-1133 (NSC836407), osimertinib (NSC779217), RMC-4630 (NSC839698), RMC-6236 (NSC851965), RMC-6291 (NSC852671), Ro-3306 (NSC812927), sapanisertib (NSC764658), SN-38 (NSC673596), staurosporine (NSC755774), SY5609 (NSC837396), and tovorafenib (DAY101, NSC766906), were obtained from the National Cancer Institute (NCI) Developmental Therapeutics Program Chemical Repository. The FDA-approved anticancer drug set is available from the NCI Developmental Therapeutics Program. […] The stock solutions were prepared in dimethyl sulfoxide (DMSO, Sigma-Aldrich, St. Louis, MO, cat. D2650) at 800-fold the tested concentration and stored at -70 degrees C prior to their use. All drugs and investigational agents were tested over a range starting from a high concentration at or near the clinical Cmax and decreasing in half-log increments. If the clinical Cmax for an agent had not been determined, the highest concentration tested was 10 microM.
Cell Culture. All cells were maintained in an incubator at 37 degrees C and 5% CO2 with 95% humidity. The PDC lines were cultured according to standard operating procedures established by the NCI PDMR. All PDCs were thawed and cultured in Matrigel-coated flasks prepared with a working solution of 1X Ham's F-12 nutrient mix, without supplementation (Invitrogen, Waltham, MA, cat. 11765054), 100 U/mL penicillin-streptomycin (Invitrogen, cat. 15140122), and 2.5% Matrigel (Corning Inc., Corning, NY, cat. 354248) for the first three passages. The 362531-283-R-J2-PDC and 782815-120-R-J1-PDC lines were cultured in 6C/Colon 1B media, which includes advanced DMEM/F-12 (Thermo Fisher Scientific, cat. 12634028), 10 mM HEPES (Thermo Fisher Scientific, cat. 15630080), 1X GlutaMAX supplement (Thermo Fisher Scientific, cat. 35050061), 0.1 mg/mL primocin (InvivoGen, San Diego, CA, cat. ant-pm-2), 10% defined fetal bovine serum, heat inactivated (HyClone Laboratories Inc., Logan, UT, cat. SH30070.03HI), 50% L-WRN conditioned media (ATCC, cat. CRL-3276), 1.25 mM N-Acetyl-L-cysteine (Sigma-Aldrich, cat. A9165), 10 mM nicotinamide (Sigma-Aldrich, cat. N0636), 1X B-27 supplement (Thermo Fisher Scientific, cat. 17504044), 1X N-2 supplement (Thermo Fisher Scientific, cat. 17502048), 50 ng/mL human EGF (Thermo Fisher Scientific, cat. PHG0311), and 10 microM Y-27632 dihydrochloride (Tocris Bioscience, cat. 1254). The K12877-001-R-J1-PDC line was cultured in 6I media, which includes all 6C/Colon 1B media plus 10 ng/mL human FGF-10 (PeproTech, cat. 100-26), 1 ng/mL human FGF-2 (PeproTech, cat. 100-18B), 1 µM prostaglandin E2 (Tocris Bioscience, cat. 2296), […] hydrocortisone (Sigma-Aldrich, cat. H4001), and […] bovine insulin (Sigma-Aldrich, cat. I6634). The K86415-001-R-J1-PDC line was cultured in 6D media, which includes all 6C/Colon 1B media components minus the L-WRN conditioned media. The 485176-168-R4-J1-PDC was cultured in PANC media, which includes all 6C/Colon 1B media plus 100 ng/mL human FGF-10 (PeproTech, cat. 100-26), 500 nM SB-431542 (Selleckchem, cat. S1067), and 10 nM gastrin (Tocris Bioscience, cat. 3006). […]

[1] = second compound 0.0316 µM, first compound 0.0316 µM
[2] = second compound 0.0316 µM, first compound 0.1 µM
[3] = second compound 0.0316 µM, first compound 0.316 µM
[4] = second compound 0.0316 µM, first compound 1 µM
[5] = second compound 0.1 µM, first compound 0.0316 µM
[6] = second compound 0.1 µM, first compound 0.1 µM
[7] = second compound 0.1 µM, first compound 0.316 µM
[8] = second compound 0.1 µM, first compound 1 µM
[9] = second compound 0.316 µM, first compound 0.0316 µM
[10] = second compound 0.316 µM, first compound 0.1 µM
[11] = second compound 0.316 µM, first compound 0.316 µM
[12] = second compound 0.316 µM, first compound 1 µM
[13] = second compound 1 µM, first compound 0.0316 µM
[14] = second compound 1 µM, first compound 0.1 µM
[15] = second compound 1 µM, first compound 0.316 µM
[16] = second compound 1 µM, first compound 1 µM
[17] = second compound 3.16 µM, first compound 0.0316 µM
[18] = second compound 3.16 µM, first compound 0.1 µM
[19] = second compound 3.16 µM, first compound 0.316 µM
[20] = second compound 3.16 µM, first compound 1 µM
[21] = second compound 10 µM, first compound 0.0316 µM
[22] = second compound 10 µM, first compound 0.1 µM
[23] = second compound 10 µM, first compound 0.316 µM
[24] = second compound 10 µM, first compound 1 µM
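Also: spheroids exposed to agents for one week before readout.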

For `CC(Nc1ccc2c(c1)OCCn1cc(N3C(=O)OCC3C(F)F)nc1-2)C(N)=O` (centres undefined) + C#Cc1c(F)ccc2cc(O)cc(-c3ncc4c(N5CC6CCC(C5)N6)nc(OCC56CCCN5CC(F)C6)nc4c3F)c12, the IC50 (second compound 0.0316 µM) was 4.9 µM, the IC50 (second compound 0.1 µM) was 3.94 µM and the IC50 (second compound 0.316 µM) was 4.32 µM. The IC50 (second compound 1 µM) was 4.49 µM, the IC50 (second compound 3.16 µM) was 4.63 µM and the IC50 (second compound 10 µM) was 2.91 µM. It also gave a viability, T/C [1] of 97.5%, a viability, T/C [2] of 88.9% and a viability, T/C [3] of 80.2%. It also gave a viability, T/C [4] of 69.6%, a viability, T/C (second compound 0.0316 µM, first compound 3.16 µM) of 60.4% and a viability, T/C (second compound 0.0316 µM, first compound 10 µM) of 37.4%. The viability, T/C [5] was 107%, the viability, T/C [6] was 82.7% and the viability, T/C [7] was 84.6%. The viability, T/C [8] was 62.7%, the viability, T/C (second compound 0.1 µM, first compound 3.16 µM) was 56.7% and the viability, T/C (second compound 0.1 µM, first compound 10 µM) was 37%. It also gave a viability, T/C [9] of 110%, a viability, T/C [10] of 88.9% and a viability, T/C [11] of 73.9%. It also gave a viability, T/C [12] of 71.2%, a viability, T/C (second compound 0.316 µM, first compound 3.16 µM) of 55.1% and a viability, T/C (second compound 0.316 µM, first compound 10 µM) of 38.8%. The viability, T/C [13] was 96.3%, the viability, T/C [14] was 90.3% and the viability, T/C [15] was 78.5%. For the same molecule, the viability, T/C [16] was 64.5%, the viability, T/C (second compound 1 µM, first compound 3.16 µM) was 60.3% and the viability, T/C (second compound 1 µM, first compound 10 µM) was 37%. For the same molecule, the viability, T/C [17] was 103%, the viability, T/C [18] was 89.4% and the viability, T/C [19] was 79.6%. For the same molecule, the viability, T/C [20] was 65.1%, the viability, T/C (second compound 3.16 µM, first compound 3.16 µM) was 64.8% and the viability, T/C (second compound 3.16 µM, first compound 10 µM) was 35.2%. The viability, T/C [21] was 99.5%, the viability, T/C [22] was 75.7% and the viability, T/C [23] was 68.8%. It also gave a viability, T/C [24] of 63%, a viability, T/C (second compound 10 µM, first compound 3.16 µM) of 66.5% and a viability, T/C (second compound 10 µM, first compound 10 µM) of 23.8%.

`O=C(c1ccc(F)c(F)c1Nc1ccc(I)cc1F)N1CC(O)([C@@H]2CCCCN2)C1` + C#Cc1c(F)ccc2cc(O)cc(-c3ncc4c(N5CC6CCC(C5)N6)nc(OCC56CCCN5CC(F)C6)nc4c3F)c12 was tested, and the IC50 (second compound 0.0316 µM) was > 1 µM, the IC50 (second compound 0.1 µM) was > 1 µM and the IC50 (second compound 0.316 µM) was > 1 µM. The IC50 (second compound 1 µM) was > 1 µM, the IC50 (second compound 3.16 µM) was > 1 µM and the IC50 (second compound 10 µM) was > 1 µM. It also gave a viability, T/C (second compound 0.0316 µM, first compound 0.00316 µM) of 119%, a viability, T/C (second compound 0.0316 µM, first compound 0.01 µM) of 102% and a viability, T/C [1] of 102%. It also gave a viability, T/C [2] of 81.9%, a viability, T/C [3] of 77.9% and a viability, T/C [4] of 58%. For the same molecule, the viability, T/C (second compound 0.1 µM, first compound 0.00316 µM) was 110%, the viability, T/C (second compound 0.1 µM, first compound 0.01 µM) was 107% and the viability, T/C [5] was 91.5%. The viability, T/C [6] was 92.8%, the viability, T/C [7] was 82.3% and the viability, T/C [8] was 57.1%. It also gave a viability, T/C (second compound 0.316 µM, first compound 0.00316 µM) of 108%, a viability, T/C (second compound 0.316 µM, first compound 0.01 µM) of 104% and a viability, T/C [9] of 94.9%. For the same molecule, the viability, T/C [10] was 84.7%, the viability, T/C [11] was 74% and the viability, T/C [12] was 62.9%. The viability, T/C (second compound 1 µM, first compound 0.00316 µM) was 105%, the viability, T/C (second compound 1 µM, first compound 0.01 µM) was 116% and the viability, T/C [13] was 87.9%. For the same molecule, the viability, T/C [14] was 93.7%, the viability, T/C [15] was 77.7% and the viability, T/C [16] was 58.1%. It also gave a viability, T/C (second compound 3.16 µM, first compound 0.00316 µM) of 110%, a viability, T/C (second compound 3.16 µM, first compound 0.01 µM) of 103% and a viability, T/C [17] of 92.8%. For the same molecule, the viability, T/C [18] was 86.5%, the viability, T/C [19] was 75.7% and the viability, T/C [20] was 62.9%. The viability, T/C (second compound 10 µM, first compound 0.00316 µM) was 102%, the viability, T/C (second compound 10 µM, first compound 0.01 µM) was 84.4% and the viability, T/C [21] was 82.8%. For the same molecule, the viability, T/C [22] was 85.6%, the viability, T/C [23] was 78.9% and the viability, T/C [24] was 63.8%.
